# Columns and labels:
# [1] = system: Mycobacterium avium complex (MAC); assay: Multicenter, randomized, placebo controlled clinical trial: prevention or delay of MAC infection in AIDS patients; type: in vivo, human
# [2] = system: atypical mycobacterial infection; assay: Same clinical trial: occurrence of atypical mycobacterial infection; type: in vivo, human; conditions: rifabutin 300 mg/day; one patient on the placebo arm developed it
# [3] = cited from earlier work
# M. tuberculosis = assay: Same clinical trial: occurrence of M. tuberculosis infections; type: in vivo, human; conditions: rifabutin 300 mg/day; three patients on the placebo arm developed M. tuberculosis infections
# Experimental: The efficacy of rifabutin on the prevention of MAC disease in HIV positive patients having a CD4 count of ≦200/mm³ was assessed in a large multicenter controlled trial in the United States.
# Five hundred ninety (590) patients with CD4 counts ≦200/mm³; and with no clinical evidence of MAC infection (as determined by two blood cultures) were randomly assigned to receive either rifabutin monotherapy (300 mg/day) or placebo. Nine of these patients, five in the rifabutin group and four in the placebo group, who were enrolled with presumptive negative evidence of MAC blood cultures were subsequently found to have had MAC bacteremia at baseline and were excluded from the study. Fifty-six of the 581 patients who had confirmed negative cultures at baseline developed MAC infection after having enrolled in the study. Eighteen of those 56 patients were in the rifabutin group and the other 38 were in the placebo group. After excluding seven patients from each group who were considered to be inevaluable, the treatment groups were compared with respect to the incidence of MAC infection; the observed difference was highly statistically significant (p=0.002, Chi-squared test).
# Three patients on the placebo arm of the study developed M. tuberculosis infections (other than MAC) while no patients receiving rifabutin developed tuberculosis. […]
smiles,measurement,setting,value
"CO[C@H]1/C=C/O[C@@]2(C)Oc3c(C)c(O)c4c(c3C2=O)C2=NC3(CCN(CC(C)C)CC3)NC2=C(NC(=O)/C(C)=C\C=C\[C@H](C)[C@H](O)[C@@H](C)[C@@H](O)[C@@H](C)[C@H](OC(C)=O)[C@@H]1C)C4=O [rifabutin, 4-dioxo-3,4-[2-spiro-(N-isobutyl-4-piperidyl)-2,5-dihydro-1H-imidazo]-rifamycin S]",Patients who developed MAC infection after having enrolled in the study,"[1]; HIV positive patients, CD4 ≦200/mm³, rifabutin monotherapy 300 mg/day oral, of 581 patients with confirmed negative cultures at baseline, before excluding inevaluable patients",Eighteen
same,Time of MAC infection in patients who got a MAC infection,"[1]; analysis by Kaplan/Meier Methodology, compared with placebo",significantly later than patients on placebo
same,Likelihood of placebo patients to die or to experience a MAC event relative to patients receiving rifabutin,"[1]; at any point in time, on average, Kaplan/Meier analysis",2.3 times
same,Number of: Patients without MAC,"[1]; evaluable patients, rifabutin 300 mg/day, group total 280",269
same,Number of: Patients with MAC,"[1]; evaluable patients, rifabutin 300 mg/day, group total 280, vs placebo x^2 = 9.76, P ≅ 0.002",11
same,Patients who developed atypical mycobacterial infection,[2],no patients
same,Solubility in chloroform,[3]; chloroform,soluble
same,Solubility in methanol,[3]; methanol,soluble
same,Solubility in water,[3]; water,very slightly soluble
same,Patients who developed tuberculosis,M. tuberculosis,no patients

# — EP0552018A1, “Use of Rifabutin for delaying or preventing mycobacterial infections” (Erbamont Inc., priority 1992, dated 1993)
